Measurements: article PMC8424217 (The Journal of Biological Chemistry, 2021)
Peptide text beside a SMILES is read from it. * marks the point of attachment. Palmitoyl = CCCCCCCCCCCCCCCC(=O)*

Experiments:
hUT = target: T1, hUT (Homo sapiens, UniProt Q9UKP6); experiment: IP1 production, IP-One terbium immunoassay, CHO-hUT cells; type: cell-based; set-up: expressed in transfected cells; host or cells: CHO-K1 cells stably expressing hUT (gift from H. Vaudry and C. Dubessy, University of Rouen); conditions: for IP1 production efficacy at 10^−5 M: 40 min, normalized to the hUII maximum effect; for EC50: 40 min incubation at 37 °C, mean ± SEM of at least three independent experiments in triplicate, read-out: IP1 production pEC50 (converted)
T1 sequence (Q9UKP6 1-389): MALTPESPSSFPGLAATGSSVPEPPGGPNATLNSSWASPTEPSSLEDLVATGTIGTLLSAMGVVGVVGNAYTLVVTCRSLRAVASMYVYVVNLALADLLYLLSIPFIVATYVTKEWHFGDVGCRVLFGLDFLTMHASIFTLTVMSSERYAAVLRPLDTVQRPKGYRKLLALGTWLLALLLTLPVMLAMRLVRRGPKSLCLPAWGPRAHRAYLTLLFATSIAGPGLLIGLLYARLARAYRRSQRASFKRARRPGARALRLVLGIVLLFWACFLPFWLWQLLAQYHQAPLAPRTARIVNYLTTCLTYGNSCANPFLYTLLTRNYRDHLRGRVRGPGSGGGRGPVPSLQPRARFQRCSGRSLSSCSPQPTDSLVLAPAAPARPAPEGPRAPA
Method: Figure 3 IP1production (A and B) and ERK1/2phosphorylation (C and D) kinetics and concentration dependence following hUT activation. IP1 production was evaluated using the IP-One terbium immunoassay kits while ERK1/2 phosphorylation was measured by western blot in CHO-K1 cells stably expressing hUT. […] Each curve represents the mean ± SEM of at least three independent experiments performed in triplicate.
This assay, performed with the IP-One terbium immunoassay kits from Cisbio, was used according to the manufacturer recommendation and as previously described ([43]). Briefly, CHO-hUT cells were grown in 10-cm dishes for 24 h. The cells were then starved without serum. The next day, cells were washed once with PBS and collected in PBS containing 20 mM EDTA. For the assay, 80,000 cells per well (96-well plate) were used. […] IP1-d2 and anti-IP1-cryptate were added for an additional 2 h at room temperature. Plates were read on a Flexstation 3 microplate reader.

CHO-K1 cells = experiment: ERK1/2 phosphorylation, western blot, CHO-K1 cells not expressing hUT; type: cell-based; conditions: CHO-K1, 5 min; hUII 10^−7 M, pepducins 10^−5 M; n = 3
rat thoracic aorta rings = target: T2, rat thoracic aorta rings (Rattus norvegicus, UniProt P49684); experiment: Modulation of hUII-mediated rat aortic ring contraction; conditions: for Emax: read-out: hUII Emax after pepducin pretreatment
T2 sequence (P49684 1-386): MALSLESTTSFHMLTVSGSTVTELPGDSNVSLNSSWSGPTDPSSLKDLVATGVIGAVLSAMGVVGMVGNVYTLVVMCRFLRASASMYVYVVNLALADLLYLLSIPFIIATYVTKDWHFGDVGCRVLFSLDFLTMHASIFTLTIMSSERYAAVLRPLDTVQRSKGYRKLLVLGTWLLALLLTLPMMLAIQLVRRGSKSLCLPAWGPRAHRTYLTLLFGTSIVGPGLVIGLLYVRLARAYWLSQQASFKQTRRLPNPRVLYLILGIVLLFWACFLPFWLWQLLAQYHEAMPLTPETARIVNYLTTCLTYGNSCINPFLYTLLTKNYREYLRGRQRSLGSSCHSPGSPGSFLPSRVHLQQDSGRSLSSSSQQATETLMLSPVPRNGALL
Method: Each replicate (n) was conducted on tissue obtained from at least three different animals. Data represent mean ± SEM.
Adult male Sprague-Dawley rats (Charles-River) weighing 250–300 g were housed in cages under controlled illumination (12:12 h light–dark cycle), humidity, and temperature (21–23 °C) and had free access to tap water and rat chow. All experimental procedures were performed in accordance with regulations and ethical guidelines from the Canadian Council for the Care of Laboratory Animals and received approvals of the institutional animal care and use committee of the Institut National de la Recherche Scientifique—Centre Armand-Frappier Santé Biotechnologie. As previously described ([17], [18]), the thoracic aorta was cleared of surrounding tissue and then excised from the aortic arch to the diaphragm. Conjunctive tissues were next removed from the thoracic aorta and the vessels were divided into five rings of 4 mm. The endothelium of each aortic ring was removed by gently rubbing the vessel intimal surface. Aortic rings were then placed in a 5 ml organ bath filled with oxygenated normal Krebs–Henseleit buffer. Eighty microliters of a 2.5 M potassium chloride solution (40 mM final concentration) was used to evaluate maximal contractile responses of each vessel. […] Cumulative concentration–response curves to synthetic peptides were obtained by increasing the concentration of each peptide in the remaining organ chambers (10^−11–10^−5 M).

[1] = tested on: rat neonatal cardiac fibroblasts; experiment: Rat cardiac neonatal fibroblast proliferation, high content imaging; type: cell-based; conditions: 10^−6 M, 24 h, three independent experiments in triplicate
From the text: (§1) Each bar corresponds to the mean ± SEM obtained from three independent experiments conducted in triplicate.
Neonatal cardiac rat fibroblasts, endogenously expressing UT ([82]), were obtained from 1–3-day-old Sprague-Dawley pups as previously reported ([83]). Briefly, hearts obtained from neonatal rats were enzyme-digested and after centrifugation, cells were preplated to separate cardiomyocytes from fibroblasts. As reported, the adherent nonmyocyte fractions correspond predominantly to fibroblasts while the supernatants largely contain the cardiomyocytes. After several washes, attached fibroblasts were trypsinized and then cultured at 37 °C in 96-well plate (6000 cells per well) in low glucose-DMEM supplemented with 7% FBS, 100 units/ml of penicillin, and 100 μg/ml of streptomycin. After 48 h, cells were washed twice with low glucose-DMEM, and starved for 12 h in this medium. […] Cells are incubated with primary anti-smooth muscle α-actin antibody (1/500) in 10% horse serum/PBS overnight at 4 °C and later with secondary anti-rabbit Alexa Fluor 488 (1/1000) for 1 h at RT. Cell staining was performed using cell mask (1 μg mL^−1) in PBS for 30 min at room temperature and with Hoechst dye in PBS (1 μg/ml) for 10 min. Analysis was performed on an Opera Phoenix High Content Imaging System with a 20× water objective.

HEK 293-hUT cells = experiment: Cell proliferation, MTT assay and flow cytometry, HEK 293-hUT cells; type: cell-based; conditions: 10^−6 M, three independent experiments in triplicate
Method: as §1
HEK 293-hUT cell proliferation was evaluated by flow cytometry using propidium iodide DNA staining. […] Next, cells were detached, fixed with cold 70% ethanol, and then stored at –20 °C for at least 2 h. Cells were centrifuged at 200 rpm for 10 min at 4 °C and washed at least once with cold PBS. Cells were then resuspended in Triton X-100 (0.1%) supplemented with propidium iodide (500 μg mL^−1), and 200 μg mL^−1 of DNAse-free RNAse A in PBS. Data, expressed as the mean ± SEM of at least three independent experiments, were acquired on a FACScan (BD Biosciences), and results were analyzed with the FlowJo v10 software. The proliferation index is defined as the total number of divisions divided by the number of cells that went into division.

Emax (hUT) [%]	time to plateau of IP1 production (hUT; CHO-hUT, time course) [min]	hUII-mediated contraction pEC50, control (no pretreatment) (rat thoracic aorta rings; rat aortic rings, hUII alone, mean ± SEM, n = 19)	SMILES	IP1 production efficacy at 10^−5 M (hUT; CHO-hUT)	EC50 (hUT; CHO-hUT) [µM]	ERK1/2 phosphorylation in absence of receptor (CHO-K1 cells)	Emax (rat thoracic aorta rings) [%]	rat neonatal cardiac fibroblast proliferation [1]	HEK 293-hUT cell proliferation (HEK 293-hUT cells)	shift of hUII / URP concentration–response curve (rat thoracic aorta rings; rat aortic rings, pepducin 10^−6 M pretreatment)
–	–	–	CCCCCCCCCCCCCCCC(=O)N[C@@H](Cc1c[nH]c2ccccc12)C(=O)N[C@@H](CC(C)C)C(=O)N[C@@H](CO)C(=O)N[C@@H](CCC(N)=O)C(=O)N[C@@H](CCCNC(=N)N)C(=O)N[C@@H](C)C(=O)N[C@@H](CO)C(=O)N[C@@H](Cc1ccccc1)C(=O)N[C@@H](CCCCN)C(=O)N[C@@H](CCCNC(=N)N)C(=O)N[C@@H](C)C(=O)N[C@@H](CCCNC(=N)N)C(=O)N[C@@H](CCCNC(=N)N)C(N)=O [[Trp^1, Leu^2]hUT-Pep3] (Palmitoyl-WLSQRASFKRARR-NH2)	~60%	> 1	neither hUII nor hUT-derived pepducins were able to induce ERK1/2 phosphorylation	35 ± 6	proliferative action in rat neonatal cardiac fibroblasts similar to what was observed with hUII	able to induce HEK 293-hUT cell proliferation	–
97 ± 1	40	8.69 ± 0.08	CC(C)[C@H](NC(=O)[C@@H]1CSSC[C@H](NC(=O)[C@H](CC(=O)O)NC(=O)[C@@H]2CCCN2C(=O)[C@@H](NC(=O)[C@@H](N)CCC(=O)O)[C@@H](C)O)C(=O)N[C@@H](Cc2ccccc2)C(=O)N[C@@H](Cc2c[nH]c3ccccc23)C(=O)N[C@@H](CCCCN)C(=O)N[C@@H](Cc2ccc(O)cc2)C(=O)N1)C(=O)O [hUII, urotensin II, reference compound]	–	–	neither hUII nor hUT-derived pepducins were able to induce ERK1/2 phosphorylation	–	proliferative action in rat neonatal cardiac fibroblasts similar to what was observed with hUII	able to induce HEK 293-hUT cell proliferation	–
–	–	–	CCCCCCCCCCCCCCCC(=O)N[C@@H](CCCNC(=N)N)C(=O)N1CCC[C@H]1C(=O)N[C@@H](CC(C)C)C(=O)N[C@@H](CC(=O)O)C(=O)N[C@H](C(=O)N[C@H](C(=O)N[C@@H](CCC(N)=O)C(=O)N[C@@H](CCCNC(=N)N)C(=O)N1CCC[C@H]1C(=O)N[C@@H](CCCCN)C(=O)NCC(=O)N[C@@H](Cc1ccc(O)cc1)C(N)=O)C(C)C)[C@@H](C)O [hUT-Pep2] (Palmitoyl-RPLDTVQRPKGY-NH2)	around 35%	> 1	neither hUII nor hUT-derived pepducins were able to induce ERK1/2 phosphorylation	86 ± 3	proliferative action in rat neonatal cardiac fibroblasts similar to what was observed with hUII	not hUT-Pep2 were able to induce HEK 293-hUT cell proliferation	significant rightward shift in the concentration–response curve of hUII but not URP
